What was measured:
rat [1] = settings: Subchronic oral toxicity in rodents, sprague dawley, Gavage/Intubation, dose end: 13 week, group: systemic
rat [2] = settings: Subchronic dermal toxicity, sprague dawley, Topical, dose end: 13 week, group: systemic
rat [3] = settings: Combined chronic toxicity/carcinogenicity, sprague dawley, Oral, Feed, dose end: 108 week, group: systemic
dog [4] = settings: Chronic toxicity, beagle, Oral, Gavage/Intubation, dose end: 6 month, group: systemic
mouse [5] = settings: Carcinogenicity, cd1, Oral, Feed, dose end: 104 week, group: systemic
mouse [6] = settings: Combined chronic toxicity/carcinogenicity, b6c3f1, Oral, Water, dose end: 104 week, group: systemic
rat [7] = settings: Chronic toxicity, sprague dawley, Oral, Feed, dose end: 4 week, group: systemic
rat [8] = settings: Multigenerational reproductive toxicity study, sprague dawley, Inhalation, Whole-Body, dose end: 2 generation
rat [9] = settings: Prenatal developmental toxicity study; wistar; Inhalation; Whole-Body; dose end: 19 GD; group: maternal; systemic / pathology gross / kidney / [other]
rat [10] = settings: Combined chronic toxicity/carcinogenicity; sprague dawley; Oral; Feed; dose end: 104 week; group: systemic; systemic / in life observation / body weight / body weight + systemic / in life observation / body weight / body weight gain + systemic / in…
rat [11] = settings: Subchronic oral toxicity in rodents, other, Gavage/Intubation, dose end: 90 day, group: systemic, systemic / hematology / erythrocyte (rbc) count differential / erythrocyte (rbc) + systemic / hematology / hematocrit (hct) / hematocrit (…
dog [12] = settings: Subchronic oral toxicity in nonrodent, beagle, Feed, dose end: 100 day, group: systemic
dog [13] = settings: Chronic toxicity, beagle, Oral, Feed, dose end: 373 day, group: systemic
rat [14] = settings: Prenatal developmental toxicity study, wistar, Oral, Gavage/Intubation, dose end: 15 GD
rat [15] = settings: Chronic toxicity, wistar, Oral, Feed, dose end: 24 month, group: systemic
dog [16] = settings: Chronic toxicity; beagle; Oral; Feed; dose end: 371 day; group: systemic; systemic / clinical chemistry / alanine aminotransferase (alt/sgpt) / alanine aminotransferase (alt/sgpt) + systemic / clinical chemistry / …
mouse [17] = settings: Carcinogenicity; other; Oral; Feed; dose end: 18 month; group: systemic; systemic / in life observation / body weight / body weight + systemic / in life observation / body weight / body weight gain
rat [18] = settings: Multigenerational reproductive toxicity study, wistar, Oral, Feed, dose end: 2 generation
mouse [19] = settings: Subchronic oral toxicity in rodents, b6c3f1, Feed, dose end: 90 day, group: systemic
rat [20] = settings: Carcinogenicity, other, Oral, Feed, dose end: 24 month, group: systemic
rat [21] = settings: Subchronic oral toxicity in rodents, wistar, Feed, dose end: 3 month, group: systemic
[22] = systemic / pathology microscopic / stomach / infiltration cellular + systemic / pathology gross / stomach / discolored + systemic / …
[23] = systemic / pathology microscopic / stomach / infiltration cellular + systemic / pathology gross / stomach / prominent limiting ridge + …
[24] = systemic / in life observation / clinical signs / erythema + systemic / in life observation / clinical signs / body surface staining + …
[25] = systemic / in life observation / clinical signs / erythema + systemic / pathology microscopic / skin / hyperplasia + systemic / pathology …
[26] = systemic / pathology microscopic / adrenal gland / hyperplasia + systemic / pathology microscopic / thyroid gland / hyperplasia
[27] = systemic / pathology microscopic / adrenal gland / hyperplasia + systemic / pathology microscopic / thyroid gland / hyperplasia + systemic…
[28] = systemic / organ weight / thyroid gland / absolute
[29] = systemic / organ weight / thyroid gland / absolute + systemic / hematology / platelet / platelet + systemic / in life observation / body …
[30] = systemic / pathology microscopic / liver / pigmentation
[31] = systemic / in life observation / body weight / body weight
[32] = systemic / in life observation / body weight / body weight + systemic / in life observation / water consumption / water consumption
[33] = systemic / in life observation / body weight / body weight gain + systemic / in life observation / food consumption / food consumption
[34] = group: offspring, systemic / in life observation / body weight / offspring (pup) weight
[35] = group: parental, systemic / in life observation / body weight / body weight
[36] = group: reproductive, reproductive / reproductive performance / pregnancy / pregnancy
[37] = systemic / pathology gross / prostate / reduced size
[38] = systemic / pathology gross / urinary bladder / foci
[39] = group: developmental, developmental / developmental malformation / bone / unossified + developmental / developmental malformation / ureter / hydroureter + …
[40] = group: maternal, systemic / in life observation / food consumption / food consumption + reproductive / reproductive performance / resorptions / resorptions…
[41] = systemic / pathology microscopic / liver / adenoma/carcinoma combined + systemic / pathology microscopic / liver / carcinoma + systemic / in…
[42] = group: offspring, systemic / in life observation / body weight / offspring (pup) weight + systemic / in life observation / body weight / offspring (pup) …
[43] = group: parental, systemic / in life observation / body weight / body weight + systemic / in life observation / body weight / body weight gain + systemic / in…
[44] = systemic / pathology microscopic / heart / vacuolization + systemic / pathology microscopic / liver / hypertrophy
[45] = systemic / pathology microscopic / heart / vacuolization + systemic / pathology microscopic / liver / hypertrophy + systemic / clinical …
[46] = systemic / pathology microscopic / liver / polymorphism
[47] = systemic / clinical chemistry / albumin / albumin + systemic / clinical chemistry / creatinine / creatinine + systemic / clinical chemistry…
[48] = systemic / clinical chemistry / creatinine / creatinine

OCCN1CN(CCO)CN(CCO)C1 [1,3,5-Triazine-1,3,5(2H,4H,6H)-triethanol]
NEL (rat [1]; [22]): 50 mg/kg/day | NOAEL (rat [1]; [22]): 50 mg/kg/day | LEL (rat [1]; [23]): 100 mg/kg/day | LOAEL (rat [1]; [23]): 100 mg/kg/day | LEL (rat [2]; [24]): 5 mg/kg/day | NEL (rat [2]; [24]): < 5 mg/kg/day | LOAEL (rat [2]; [25]): 50 mg/kg/day | NOAEL (rat [2]; [25]): 5 mg/kg/day

COC(=O)NS(=O)(=O)c1ccc(N)cc1 [Asulam]
LEL (rat [3]; [26]): 180 mg/kg/day | LOAEL (rat [3]; [26]): 180 mg/kg/day | NEL (rat [3]; [27]): 36 mg/kg/day | NOAEL (rat [3]; [27]): 36 mg/kg/day | LEL (dog [4]; [28]): 300 mg/kg/day | LOAEL (dog [4]; [28]): 300 mg/kg/day | NEL (dog [4]; [29]): 60 mg/kg/day | NOAEL (dog [4]; [29]): 60 mg/kg/day | LOAEL (mouse [5]; systemic / in life observation / body weight / body weight gain + systemic / organ weight / spleen / nos): 8040 mg/kg/day | LEL (mouse [5]; [30]): 74 mg/kg/day | NEL (mouse [5]; [30]): < 74 mg/kg/day | NOAEL (mouse [5]; systemic / pathology microscopic / liver / pigmentation + systemic / in life observation / body weight / body weight gain + systemic / organ…): 730 mg/kg/day

NCl [Chloramine]
LEL (mouse [6]; [31]): 6.67 mg/kg/day | NEL (mouse [6]; [31]): < 6.67 mg/kg/day | LOAEL (mouse [6]; [32]): > 26.7 mg/kg/day | NOAEL (mouse [6]; [32]): ≥ 26.7 mg/kg/day

CBr [Methyl bromide]
LOAEL (rat [7]; systemic / in life observation / body weight / body weight gain): 7.59 mg/kg/day | NEL (rat [7]; [33]): 0.082 mg/kg/day | NOAEL (rat [7]; [33]): 0.825 mg/kg/day | LEL (rat [7]; systemic / in life observation / food consumption / food consumption): 0.825 mg/kg/day | LEL (rat [8]; [34]): 30 ppm | LOAEL (rat [8]; [34]): 30 ppm | NEL (rat [8]; [34]): 3 ppm | NOAEL (rat [8]; [34]): 3 ppm | LOAEL (rat [8]; [35]): 90 ppm | NOAEL (rat [8]; [35]): 30 ppm | LEL (rat [8]; group: parental, systemic / in life observation / body weight / body weight + systemic / organ weight / liver / relative to body weight + systemic / organ …): 90 ppm | NEL (rat [8]; group: parental, systemic / organ weight / liver / relative to body weight): 30 ppm | LEL (rat [8]; [36]): 30 ppm | LOAEL (rat [8]; [36]): 30 ppm | NEL (rat [8]; [36]): 3 ppm | NOAEL (rat [8]; [36]): 3 ppm | LEL (rat [9]): 70 ppm | LOAEL (rat [9]): 70 ppm | NEL (rat [9]): 20 ppm | NOAEL (rat [9]): 20 ppm | LEL (rat [10]): 11.1 mg/kg/day | LOAEL (rat [10]): 11.1 mg/kg/day | NEL (rat [10]): 2.2 mg/kg/day | NOAEL (rat [10]): 2.2 mg/kg/day

[Na+].[O-][Cl+2]([O-])[O-] [Sodium chlorate]
LEL (rat [11]): 1000 mg/kg/day | LOAEL (rat [11]): 1000 mg/kg/day | NEL (rat [11]): 100 mg/kg/day | NOAEL (rat [11]): 100 mg/kg/day

CC/C(=N\OC/C=C/Cl)C1=C(O)CC(C2CCOCC2)CC1=O (stereo not given) [Tepraloxydim]
LOAEL (dog [12]; systemic / organ weight / liver / absolute + systemic / organ weight / liver / relative to body weight): 63.3 mg/kg/day | NOAEL (dog [12]; systemic / organ weight / liver / absolute + systemic / organ weight / liver / relative to body weight + systemic / clinical chemistry / …): 12.9 mg/kg/day | LEL (dog [12]; [37]): 12.9 mg/kg/day | NEL (dog [12]; [37]): < 12.9 mg/kg/day | LOAEL (dog [13]; systemic / clinical chemistry / cholesterol / cholesterol + systemic / clinical chemistry / creatinine / creatinine + systemic / clinical …): 56 mg/kg/day | LEL (dog [13]; [38]): 3 mg/kg/day | NEL (dog [13]; [38]): < 3 mg/kg/day | NOAEL (dog [13]; systemic / pathology gross / urinary bladder / foci + systemic / clinical chemistry / cholesterol / cholesterol + systemic / clinical …): 11.5 mg/kg/day | LEL (rat [14]; [39]): 120 mg/kg/day | LOAEL (rat [14]; [39]): 120 mg/kg/day | NEL (rat [14]; [39]): 40 mg/kg/day | NOAEL (rat [14]; [39]): 40 mg/kg/day | LOAEL (rat [14]; group: maternal, systemic / in life observation / food consumption / food consumption): 360 mg/kg/day | LEL (rat [14]; [40]): 360 mg/kg/day | NEL (rat [14]; [40]): 120 mg/kg/day | NOAEL (rat [14]; [40]): 120 mg/kg/day | LOAEL (rat [15]; [41]): 154 mg/kg/day | NEL (rat [15]; [41]): 5 mg/kg/day | NOAEL (rat [15]; [41]): 29 mg/kg/day | LEL (rat [15]; systemic / pathology microscopic / liver / carcinoma): 29 mg/kg/day | LEL (dog [16]): 248 mg/kg/day | LOAEL (dog [16]): 248 mg/kg/day | NEL (dog [16]): < 248 mg/kg/day | NOAEL (dog [16]): < 248 mg/kg/day | LEL (mouse [17]): 52 mg/kg/day | LOAEL (mouse [17]): 52 mg/kg/day | NEL (mouse [17]): < 52 mg/kg/day | NOAEL (mouse [17]): < 52 mg/kg/day | LEL (rat [18]; [42]): 267 mg/kg/day | LOAEL (rat [18]; [42]): 267 mg/kg/day | NEL (rat [18]; [42]): 50.3 mg/kg/day | NOAEL (rat [18]; [42]): 50.3 mg/kg/day | LEL (rat [18]; [43]): 253 mg/kg/day | LOAEL (rat [18]; [43]): 253 mg/kg/day | NEL (rat [18]; [43]): 50.9 mg/kg/day | NOAEL (rat [18]; [43]): 50.9 mg/kg/day | LEL (mouse [19]; [44]): 310 mg/kg/day | LOAEL (mouse [19]; [44]): 310 mg/kg/day | NEL (mouse [19]; [45]): 82 mg/kg/day | NOAEL (mouse [19]; [45]): 82 mg/kg/day | LEL (rat [20]; systemic / pathology microscopic / liver / eosinophilic focus + systemic / pathology microscopic / liver / infiltration cellular): 30 mg/kg/day | NEL (rat [20]; systemic / pathology microscopic / liver / eosinophilic focus + systemic / pathology microscopic / liver / infiltration cellular + systemic…): 5 mg/kg/day | LOAEL (rat [20]; [46]): 6 mg/kg/day | NOAEL (rat [20]; [46]): < 6 mg/kg/day | LOAEL (rat [21]; [47]): 223 mg/kg/day | NOAEL (rat [21]; [47]): 22 mg/kg/day | LEL (rat [21]; [48]): 22 mg/kg/day | NEL (rat [21]; [48]): < 22 mg/kg/day
